From US7943786B2, “Process for preparing amorphous (4R-cis)-6-[2-[3-phenyl-4-(phenylcarbamoyl)-2-(4-fluorophenyl)-5-(1-methylethyl)-pyrrol-1-yl]-ethyl]-2,2-dimethyl-[1,3]-dioxane-4-yl-acetic acid” (priority 2003, dated 2011)

Experiments:
Format in all cases: physicochemical
[1] = Dissolution in tetrahydrofuran (clarity of solution)
[2] = Comparison of solubility of amorphous and crystalline form in aprotic organic solvents; conditions: e.g. diisopropyl ether, methyl cyclohexane, isopropanol
[3] = Solubility in water

SMILES | appearance of solution on dissolution in THF [1] | solubility of amorphous versus crystalline form [2] | solubility in water [3]
CC(C)c1c(C(=O)Nc2ccccc2)c(-c2ccccc2)c(-c2ccc(F)cc2)n1CC[C@@H]1C[C@H](CC(=O)OC(C)(C)C)OC(C)(C)O1 [crystalline compound of the formula I, (4R-cis)-6-[2-[3-phenyl-4-(phenylcarbamoyl)-2-(4-fluorophenyl)-5-(1-methylethyl)-pyrrol-1-yl]-ethyl]-2,2-dimethyl-[1,3]-dioxane-4-yl-acetic acid-tertiary butyl ester] | some dimness appeared | – | –
CC(C)c1c(C(=O)Nc2ccccc2)c(-c2ccccc2)c(-c2ccc(F)cc2)n1CC[C@@H]1C[C@H](CC(=O)OC(C)(C)C)OC(C)(C)O1 [amorphous compound of the formula I, (4R-cis)-6-[2-[3-phenyl-4-(phenylcarbamoyl)-2-(4-fluorophenyl)-5-(1-methylethyl)-pyrrol-1-yl]-ethyl]-2,2-dimethyl-[1,3]-dioxane-4-yl-acetic acid-tertiary butyl ester] | perfectly clear solution | better soluble | –
CC(C)c1c(C(=O)Nc2ccccc2)c(-c2ccccc2)c(-c2ccc(F)cc2)n1CC[C@@H]1C[C@H](CC(=O)OC(C)(C)C)OC(C)(C)O1 [compound of the formula I, (4R-cis)-6-[2-[3-phenyl-4-(phenylcarbamoyl)-2-(4-fluorophenyl)-5-(1-methylethyl)-pyrrol-1-yl]-ethyl]-2,2-dimethyl-[1,3]-dioxane-4-yl-acetic acid-tertiary butyl ester] | – | – | very poor solubility in water or is practically insoluble in water
